Assay results: EPA's ToxValDB 9.5 (doi:10.2903/j.efsa.2010.1592)

Experiments:
[1] = test system: Typhlodromus pyri; experiment: LR50; higher = less toxic; details: not reported; mortality
[2] = test system: Oncorhynchus mykiss; details: acute; duration: 96 hours; mortality
[3] = test system: Pimephales promelas; details: chronic/long-term; duration: 32 days; other
[4] = test system: Anas platyrhynchos; details: oral, mortality
[5] = test system: Colinus virginianus
[6] = test system: Daphnia magna; details: chronic/long-term; duration: 21 days; reproduction
[7] = test system: Tagia sp.; details: acute; duration: 14 days; mortality
[8] = test system: Rattus norvegicus
[9] = test system: Apis mellifera; details: acute; duration: 48 hours; dermal; mortality
[10] = test system: Canidae; details: oral, Dog Other, histopathology: nonneoplastic

Question: For COc1cc(OC)n2nc(S(=O)(=O)Nc3c(Cl)ccc(C)c3Cl)nc2n1 [Metosulam], which LR50 [1] is on record?
Answer: > 40 mg/kg

Question: What about the LC50 [2] of the same compound?
Answer: > 29.3 µg/mL

Question: And the NOEC [3]?
Answer: 4.24 mg/L

Question: What about the LD50 ([4]; acute, unspecified) of the same compound?
Answer: > 2000 mg/kg

Question: What about the LC50 ([4]; short-term, feed) of the same compound?
Answer: > 1920 mg/kg-day

Question: And the LC50 ([5]; acute, oral, diet, mortality)?
Answer: > 1400 mg/kg-day

Question: And the LD50 ([5]; acute, oral, mortality)?
Answer: > 2250 mg/kg

Question: What about the NOEC ([5]; reproduction developmental) of the same compound?
Answer: 22 mg/kg-day

Question: And the NOEC [6]?
Answer: 2.5 mg/L

Question: And the LC50 [7]?
Answer: > 1000 mg/kg

Question: And the LD50 ([8]; acute, oral, mortality)?
Answer: > 5000 mg/kg

Question: What about the NOAEL ([8]; chronic, duration: 2 years, histopathology: nonneoplastic) of the same compound?
Answer: 5 mg/kg-day

Question: What about the NOEL ([8]; chronic, histopathology: nonneoplastic) of the same compound?
Answer: 30 mg/kg-day

Question: What about the LD50 [9] of the same compound?
Answer: > 100 µg/piece

Question: What about the NOAEL ([10]; chronic, duration: 1 years) of the same compound?
Answer: 10 mg/kg-day

Question: What about the NOAEL ([10]; short-term, duration: 2 weeks, diet) of the same compound?
Answer: 25 mg/kg-day
